Measurements from article PMC5267425, “Identification of small molecule modulators of HIV-1 Tat and Rev protein accumulation” (Retrovirology, 2017).

Tests used:
[1] = XTT cell metabolism/viability assay, HeLa; type: cell-based; conditions: human, HeLa rtTA HIV∆Mls cells
Procedure: (§1) Effects of compound treatment on cellular metabolism was assessed by an XTT-based in vitro toxicology assay kit (Sigma-Aldrich) or Trypan blue exclusion (Life Technologies) as proxy for degree of cytotoxicity and expressed relative to DMSO control treatment. For measurement of cell viability using XTT, culture media was removed after 24, 72, and 96 h of compound treatment, replaced with 20% XTT solution and incubated at 37 °C in a 5% CO2 humidified incubator for 2–6 h, and relative cell viability was measured in compound treated cells relative to DMSO-treated cells. Cell viability measurements in CEM-GXR cells are described above.

HIV-1 US RNA = test: FISH of HIV-1 US RNA and GagGFP in HeLa rtTA HIV GagGFP C7 cells; type: cell-based; conditions: 791 30 µM, 833 2 µM, 892 15 µM
Procedure: Changes in HIV-1 US RNA subcellular distribution in response to compound treatment was analyzed by fluorescent in situ hybridization in HeLa HIVrtTA GagGFP cells, as described by Wong et al.. Following washing to remove unbound probe, nuclei were stained with DAPI and images were acquired using a Leica DMR microscope at 630× magnification.

HIV-1 MS RNA isoforms = test: RT-PCR of splice site usage within HIV-1 MS RNA; type: cell-based; conditions: for decrease in levels of Rev1/2 and Nef RNAs relative to DMSO / increase of Tat1 and Tat2 RNAs relative to DMSO: 833 2 µM, 892 15 µM
Procedure: The effect of compound treatment on splice site selection within the HIV-1 MS RNA class was analyzed by radioactive RT-PCR as described previously. Radioactive reaction products were resolved on 6% denaturing polyacrylamide gels (8 M Urea, 1xTBE) and detection using a Typhoon 9400 PhosphorImager (Amersham). Gel densitometry was performed using ImageJ software (NIH) to calculate mRNA levels of HIV-1 MS mRNA isoforms, measured as the density of an individual isoform divided by the total density of all visible viral RNA species in a sample.

[2] = Trypan blue exclusion, HeLa; type: cell-based; conditions: human, HeLa rtTA HIV∆Mls cells
Procedure: as §1

[3] = Trypan blue exclusion, PBMCs; type: cell-based, human; conditions: human, peripheral blood mononuclear cells (PBMCs)
Procedure: To examine the effect of compounds on viral replication, studies were carried out in peripheral blood mononuclear cells (PBMCs). PBMCs were isolated from healthy (HIV-uninfected) volunteer blood donors as described by Dobson-Belaire et al.. Informed consent was obtained from participants in accordance with the guidelines for conduct of clinical research at the University of Toronto and St. Michael’s Hospital, Toronto, Ontario, Canada. Stored PBMCs were thawed, washed with RPMI 1640 complete medium and cultured in RPMI 1640 complete medium containing 2 μg/mL of PHA-L (Sigma-Aldrich) and 20 U/mL of IL-2 (BD Pharmingen) for 72 h. Subsequently, cells were counted and a portion of the cells was separated to another tube for uninfected control treatments. The remaining PBMCs were resuspended in media containing HIV-1 BaL at a multiplicity of infection (MOI) of approximately 0.01 and infected by spinoculation, following which cells were washed twice with room temperature RPMI 1640 complete medium and resuspended to a concentration of 5 × 10^5 cells/mL in complete RPMI 1640 containing 20 U/mL of IL-2. Compounds were added to infected PBMCs or uninfected control PBMCs. Azidothymidine (AZT, Sigma-Aldrich) was used as control treatment at a final concentration of 3.74 μM. On day 4 post infection, culture medium was replenished with the compounds and IL-2 in fresh complete RPMI 1640. On days 2, 4, 6 and 8 post infection, culture supernatant was harvested, virus lysed by adjusting to 1% TritonX-100 and stored at −20 °C for p24 antigen ELISA. A fraction of the culture was harvested to assess percent cell viability by trypan blue exclusion using Glasstic slides (Kova). Relative percent cell viability in compound treated samples versus DMSO-control treated samples was calculated as follows: (total viable cells/total cells)compound/(total viable cells/total cells)DMSO.

Compound	CC50 [1] [µM]	GagGFP levels relative to DMSO (HIV-1 US RNA)	cytoplasmic accumulation of HIV-1 US RNA (HIV-1 US RNA)	splice site usage within MS RNA relative to control (HIV-1 MS RNA isoforms; 30 µM, 24 h)	CC50 [2] [µM]	CC50 [3] [µM]	viability at 6 days post infection ([3]; PBMCs, 6 days post infection, concentrations up to 7.5 µM, read-out: cell viability) [%]	decrease in levels of Rev1/2 and Nef RNAs relative to DMSO (HIV-1 MS RNA isoforms)	increase of Tat1 and Tat2 RNAs relative to DMSO (HIV-1 MS RNA isoforms) [%]
Cc1cc(NCc2cccnc2)n2ncc(-c3ccc(Cl)cc3)c2n1 [Compound 791, 3-(4-chlorophenyl)-5-methyl-N-(3-pyridinylmethyl)pyrazolo[1,5-a]pyrimidin-7-amine]	> 40	reduced	prevented cytoplasmic accumulation	No significant changes	> 40	> 10	> 80	–	–
O=C(NC(=S)NNC(=O)c1ccccc1O)c1ccc(-c2ccccc2)cc1 [Compound 833, N-([2-(2-hydroxybenzoyl)hydrazino]carbonothioyl}-4-biphenylcarboxamide]	≥ 40	reduced	prevented cytoplasmic accumulation	–	> 10	3	–	~ 30%	< 10
COc1ccc(C=NNC(=O)c2ccccc2O)cc1O [Compound 892, 2-hydroxy-N′-(3-hydroxy-4-methoxybenzylidene)benzohydrazide]	> 40	reduced	prevented cytoplasmic accumulation	–	> 40	4.5	–	~ 30%	< 10
